Assay results from PubChem BioAssay (NCI).
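Protocol summary: plate cells (96-well), add compound at 5 concentrations, incubate 48 h, interpolate endpoints linearly. The concentration for 50% growth inhibition is given as GI50. The concentration for full growth arrest is given as TGI.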

Tests used:
Assay in all cases: NCI-60 cell line screen, 48 h
[1] = system: 786-0 renal
[2] = system: A498 renal
[3] = system: A549 NSCLC
[4] = system: ACHN renal
[5] = system: BT-549 breast
[6] = system: CAKI-1 renal
[7] = system: CCRF-CEM leukemia
[8] = system: COLO 205 colon
[9] = system: DU-145 prostate
[10] = system: HCC-2998 colon
[11] = system: HCT-116 colon
[12] = system: HCT-15 colon
[13] = system: HL-60(TB) leukemia
[14] = system: HOP-62 NSCLC
[15] = system: HOP-92 NSCLC
[16] = system: HS 578T breast
[17] = system: HT29 colon
[18] = system: IGROV1 ovarian
[19] = system: K-562 leukemia
[20] = system: KM12 colon
[21] = system: LOX IMVI melanoma
[22] = system: M14 melanoma
[23] = system: MALME-3M melanoma
[24] = system: MCF7 breast
[25] = system: MDA-MB-231 breast
[26] = system: MDA-MB-435
[27] = system: MOLT-4 leukemia
[28] = system: NCI-H226 lung
[29] = system: NCI-H23 lung
[30] = system: NCI-H460 lung
[31] = system: NCI-H522 lung
[32] = system: NCI/ADR-RES ovarian
[33] = system: OVCAR-3 ovarian
[34] = system: OVCAR-4 ovarian
[35] = system: OVCAR-5 ovarian
[36] = system: OVCAR-8 ovarian
[37] = system: PC-3 prostate
[38] = system: RPMI-8226 leukemia
[39] = system: RXF 393 renal
[40] = system: SF-268 CNS
[41] = system: SF-295 CNS
[42] = system: SF-539 CNS
[43] = system: SK-MEL-2 melanoma
[44] = system: SK-MEL-28 melanoma
[45] = system: SK-MEL-5 melanoma
[46] = system: SK-OV-3 ovarian
[47] = system: SN12C renal
[48] = system: SNB-19 CNS
[49] = system: SNB-75 CNS
[50] = system: SR leukemia
[51] = system: SW-620 colon
[52] = system: T-47D breast
[53] = system: TK-10 renal
[54] = system: U251 CNS
[55] = system: UACC-257 melanoma
[56] = system: UACC-62 melanoma
[57] = system: UO-31 renal
[58] = system: EKVX NSCLC

CCc1c[nH]c2ncnc(N3CC[C@](N)(CNC(=O)c4ccc(F)cc4F)C3)c12
GI50 [1]: 0.479 µM
TGI [1]: 19.8 µM
GI50 [2]: 0.245 µM
TGI [2]: 1.73 µM
GI50 [3]: 7.36 µM
TGI [3]: > 95.5 µM
GI50 [4]: 9.46 µM
TGI [4]: > 100 µM
GI50 [5]: 0.797 µM
TGI [5]: 18.1 µM
GI50 [6]: 8.62 µM
TGI [6]: > 63.6 µM
GI50 [7]: 2.72 µM
TGI [7]: > 91.2 µM
GI50 [8]: 8.12 µM
TGI [8]: > 64.8 µM
GI50 [9]: 18.3 µM
TGI [9]: > 100 µM
GI50 [10]: 11.5 µM
TGI [10]: > 100 µM
GI50 [11]: 8.91 µM
TGI [11]: > 100 µM
GI50 [12]: 15.5 µM
TGI [12]: > 100 µM
GI50 [13]: 56.2 µM
TGI [13]: > 100 µM
GI50 [14]: 12.8 µM
TGI [14]: > 100 µM
GI50 [15]: 0.23 µM
TGI [15]: 7.57 µM
GI50 [16]: 0.513 µM
TGI [16]: 24.3 µM
GI50 [17]: 3.1 µM
TGI [17]: > 100 µM
GI50 [18]: 0.207 µM
TGI [18]: 6.67 µM
GI50 [19]: > 54.1 µM
TGI [19]: > 100 µM
GI50 [20]: 1.25 µM
TGI [20]: > 100 µM
GI50 [21]: 26.2 µM
TGI [21]: > 100 µM
GI50 [22]: 15.6 µM
TGI [22]: > 100 µM
GI50 [23]: 3.4 µM
TGI [23]: 39.5 µM
GI50 [24]: 0.716 µM
TGI [24]: > 100 µM
GI50 [25]: 48.5 µM
TGI [25]: > 100 µM
GI50 [26]: 12.8 µM
TGI [26]: > 79.7 µM
GI50 [27]: 0.439 µM
TGI [27]: 46.2 µM
GI50 [28]: 5.75 µM
TGI [28]: > 77.7 µM
GI50 [29]: 18.6 µM
TGI [29]: > 100 µM
GI50 [30]: 1.78 µM
TGI [30]: > 100 µM
GI50 [31]: 30.1 µM
TGI [31]: > 100 µM
GI50 [32]: > 61.2 µM
TGI [32]: > 100 µM
GI50 [33]: 11.4 µM
TGI [33]: > 100 µM
GI50 [34]: 53.1 µM
TGI [34]: > 100 µM
GI50 [35]: 21.7 µM
TGI [35]: > 100 µM
GI50 [36]: 28.2 µM
TGI [36]: > 100 µM
GI50 [37]: 1 µM
TGI [37]: > 91.7 µM
GI50 [38]: 20.8 µM
TGI [38]: > 100 µM
GI50 [39]: 0.244 µM
TGI [39]: 8.02 µM
GI50 [40]: 33.3 µM
TGI [40]: > 100 µM
GI50 [41]: 1 µM
TGI [41]: > 100 µM
GI50 [42]: 0.381 µM
TGI [42]: 29.4 µM
GI50 [43]: 28 µM
TGI [43]: > 100 µM
GI50 [44]: 7.46 µM
TGI [44]: > 100 µM
GI50 [45]: 15.8 µM
TGI [45]: > 52.5 µM
GI50 [46]: 0.973 µM
TGI [46]: > 62.1 µM
GI50 [47]: 24.2 µM
TGI [47]: > 100 µM
GI50 [48]: 2.04 µM
TGI [48]: > 100 µM
GI50 [49]: 0.0768 µM
TGI [49]: 7.97 µM
GI50 [50]: 2.19 µM
TGI [50]: > 66.3 µM
GI50 [51]: 23.1 µM
TGI [51]: > 100 µM
GI50 [52]: 0.203 µM
TGI [52]: 11.1 µM
GI50 [53]: 1.27 µM
TGI [53]: 50.4 µM
GI50 [54]: 0.76 µM
TGI [54]: > 100 µM
GI50 [55]: 9.22 µM
TGI [55]: > 100 µM
GI50 [56]: 3.33 µM
TGI [56]: 45.1 µM
GI50 [57]: 1.52 µM
TGI [57]: 47.6 µM

COC(=O)C(NC(=O)c1ccccc1)c1ccc(OC)c(I)c1 (stereo unspecified)
GI50 [1]: > 100 µM
TGI [1]: > 100 µM
GI50 [2]: > 100 µM
TGI [2]: > 100 µM
GI50 [3]: 62.1 µM
TGI [3]: > 100 µM
GI50 [4]: 63.8 µM
TGI [4]: > 100 µM
GI50 [5]: > 100 µM
TGI [5]: > 100 µM
GI50 [6]: 77.6 µM
TGI [6]: > 100 µM
GI50 [7]: 53.8 µM
TGI [7]: > 100 µM
GI50 [8]: 80.8 µM
TGI [8]: > 100 µM
GI50 [9]: > 100 µM
TGI [9]: > 100 µM
GI50 [58]: 89.1 µM
TGI [58]: > 100 µM
GI50 [10]: 54.5 µM
TGI [10]: > 100 µM
GI50 [11]: 33.7 µM
TGI [11]: > 100 µM
GI50 [12]: 35.5 µM
TGI [12]: > 100 µM
GI50 [13]: 41.6 µM
TGI [13]: > 100 µM
GI50 [14]: > 100 µM
TGI [14]: > 100 µM
GI50 [15]: 58.6 µM
TGI [15]: > 100 µM
GI50 [16]: 77.1 µM
TGI [16]: > 100 µM
GI50 [17]: 49 µM
TGI [17]: > 100 µM
GI50 [18]: 53.2 µM
TGI [18]: > 100 µM
GI50 [19]: 35.6 µM
TGI [19]: > 100 µM
GI50 [20]: > 100 µM
TGI [20]: > 100 µM
GI50 [21]: 46.9 µM
TGI [21]: > 100 µM
GI50 [22]: 52.3 µM
TGI [22]: > 100 µM
GI50 [24]: 39.5 µM
TGI [24]: > 100 µM
GI50 [25]: 27.2 µM
TGI [25]: > 100 µM
GI50 [26]: 39.6 µM
TGI [26]: > 100 µM
GI50 [27]: 48.9 µM
TGI [27]: > 100 µM
GI50 [28]: > 100 µM
TGI [28]: > 100 µM
GI50 [30]: 67.6 µM
TGI [30]: > 100 µM
GI50 [31]: 43.6 µM
TGI [31]: > 100 µM
GI50 [32]: 36.4 µM
TGI [32]: > 100 µM
GI50 [33]: 37.4 µM
TGI [33]: 88.2 µM
GI50 [34]: 94.2 µM
TGI [34]: > 100 µM
GI50 [35]: > 100 µM
TGI [35]: > 100 µM
GI50 [36]: > 100 µM
TGI [36]: > 100 µM
GI50 [37]: 40.1 µM
TGI [37]: > 100 µM
GI50 [38]: 44.2 µM
TGI [38]: > 100 µM
GI50 [39]: > 100 µM
TGI [39]: > 100 µM
GI50 [40]: > 100 µM
TGI [40]: > 100 µM
GI50 [41]: 66.4 µM
TGI [41]: > 100 µM
GI50 [42]: > 100 µM
TGI [42]: > 100 µM
GI50 [43]: > 100 µM
TGI [43]: > 100 µM
GI50 [44]: 76.4 µM
TGI [44]: > 100 µM
GI50 [45]: 44.2 µM
TGI [45]: > 100 µM
GI50 [46]: 78.2 µM
TGI [46]: > 100 µM
GI50 [47]: > 100 µM
TGI [47]: > 100 µM
GI50 [48]: > 100 µM
TGI [48]: > 100 µM
GI50 [49]: 56.7 µM
TGI [49]: > 100 µM
GI50 [50]: 35.2 µM
TGI [50]: > 100 µM
GI50 [51]: > 100 µM
TGI [51]: > 100 µM
GI50 [52]: 36.6 µM
TGI [52]: > 100 µM
GI50 [53]: 38.5 µM
TGI [53]: > 100 µM
GI50 [54]: 65.6 µM
TGI [54]: > 100 µM
GI50 [55]: 48.3 µM
TGI [55]: > 100 µM
GI50 [56]: 52.9 µM
TGI [56]: > 100 µM
GI50 [57]: 76 µM
TGI [57]: > 100 µM
